Experiments:
[1] = system: LAD-ligated male C57BI/6 mice (myocardial infarction); experiment: Cardiac function after coronary artery (LAD) ligation, echocardiography; assay type: in vivo, mouse
From the text: Adult male C57BI/6 mice, 3 months old, were purchased from Jackson Laboratories and acclimated for 3 or more days in standard housing. All mice underwent twice daily intra-gastric administration of physiologic saline for 7 days pre-operatively (acclimation period). They also underwent standard B- and M-mode echocardiographic (ECHO) imaging (VisualSonics Vevo 2100) of the left heart under conscious restraint, 1-5 days prior to surgery.
Under ketamine/xylazine anesthesia, mice were intubated and ventilated, then incised through the left thoracic wall between the 3rd and 4th ribs to expose the heart. For ligation of the left anterior descending coronary artery (LAD), an 8-0 nylon suture was inserted under microscopic view (Wild/Leica operating microscope), placing and tying the ligature at a point 1 mm distal to the point where the artery emerges from the edge of the left atrium. Confirmation was provided by clear blanching of the downstream ventricle wall. Control sham-treated mice underwent needle and 8-0 suture passage under the coronary artery but with suture removal without ligation. The wound was closed with 6-0 suture in two layers (muscle and skin, respectively) and mice were recovered on a warming blanket. They received buprenorphine intraoperatively and twice daily postoperatively for 48 hours, by subcutaneous injection (50 ug/kg body weight).
A total of 48 mice entered the study. Eight mice underwent sham surgery, and these mice received vehicle treatment after surgery. 40 mice underwent LAD ligation, with 20 in each treatment group. Treatment was by oral gavage (intra-gastric administration) at 10 mL/kg body weight, twice daily (7-9 am and 4-6 pm), starting 1-2 hours after surgery and continuing until study termination. Treatment was either with EXAMPLE 22 at a concentration of 3 mg/mL (30 mg/kg) or vehicle for the test agent.
Echocardiography was done under brief, conscious restraint using a VisualSonics Vevo 2100 ultrasound machine, pre-operatively and at 2 and 4 weeks postoperatively. Standard B-mode and M-mode ultrasound imaging was captured at each imaging session. Echocardiographic images were analyzed for left ventricular function, measuring the interventricular septal thickness, internal ventricular cavity dimension, and posterior wall thickness at both diastole and systole from M-mode images at the level of the papillary muscles. The left ventricle ejection fraction and fractional shortening were calculated from these values:
Ejection Fraction (%)=100×[LVIDd^3−LVIDs^3]/LVIDd^3Fractional Shortening (%)=100×[LVIDd−LVIDs]/LVIDd, • where LVID=left ventricle inner diameter (internal ventricular cavity dimension), d=diastole, s=systole
After the 4-week ECHO imaging, mice were anesthetized and a terminal blood draw was taken from the abdominal aorta into 3.8% citrate (9:1), and the plasma was obtained by centrifugation and frozen. Mice were then euthanized (anesthesia overdose followed by cervical dislocation) and the hearts were weighed and the area of infarction was visually measured with t ruler for cranial-caudal and for lateral axes lengths of the approximately oval infarction zone (ligated hearts only). The hearts, and both kidneys, were then immersion-fixed in neutral-buffered formalin for subsequent histopathological evaluation. Plasma, kidney, and heart specimens were returned to Study Sponsor for further evaluation. The time between the last drug dosing and the blood draw was recorded, for future dose-response evaluation by Study Sponsor.
Summary statistics by “treatment” were provided for the change from baseline to week 2 and change from baseline to week 4 where baseline was defined as the pre-echos time-point. For each parameter, the mean “treatment” difference between “Example 22” and “Vehicle” was analyzed using a 2-sample t-test. The analysis was conducted using SAS Version 9.4 via PROC TTEST under unequal variances for the “treatments” using the Satterthwaite method. […]

[2] = system: Salmonella typhimurium (TA98, TA100, TA1535 and TA1537)
[3] = Ex 22 vs Vehicle, LAD-ligated mice, 30 mg/kg p.o. twice daily
[4] = LAD-ligated mice, 30 mg/kg p.o. twice daily

## O=C(O)C[C@H](CCN1CCCC(F)(F)C1)NC(=O)c1cc(-c2ccccc2C(F)(F)F)n(-c2nccs2)n1 [Example 22, (3S)-5-(3,3-difluoropiperidin-1-yl)-3-{[1-(1,3-thiazol-2-yl)-5-[2-(trifluoromethyl)phenyl]-1H-pyrazol-3-yl]formamido}pentanoic acid]
[1]; 30 mg/kg p.o. twice daily, deaths between 3 and 11 days postoperatively, vehicle 7/20
  deaths in ligated group: 2/20
[1]; 4 weeks post-treatment
  ejection fraction: Statistically significant improvement
[1]; [3]
  EF, Change from baseline, Week 2, Difference: 4.81%
  EF, Change from baseline, Week 4, Difference: 10.70%
  FS, Change from baseline, Week 2, Difference: 4.21%
  FS, Change from baseline, Week 4, Difference: 7.17%
  Heart Rate, Change from baseline, Week 2, Difference: 11.43
  Heart Rate, Change from baseline, Week 4, Difference: −6.42
  IVS d, Change from baseline, Week 2, Difference: 0.40
  IVS d, Change from baseline, Week 4, Difference: 0.49
  IVS s, Change from baseline, Week 2, Difference: 0.47
  IVS s, Change from baseline, Week 4, Difference: 0.56
  LV Mass corrected, Change from baseline, Week 2, Difference: 18.64
  LV Mass corrected, Change from baseline, Week 4, Difference: 7.38
  LV Mass, Change from baseline, Week 2, Difference: 23.30
  LV Mass, Change from baseline, Week 4, Difference: 9.23
  LV VoI d, Change from baseline, Week 2, Difference: −5.56
  LV VoI d, Change from baseline, Week 4, Difference: −29.03
  LV VoI s, Change from baseline, Week 2, Difference: −1.67
  LV VoI s, Change from baseline, Week 4, Difference: −22.79
  LVID d, Change from baseline, Week 2, Difference: −0.23
  LVID d, Change from baseline, Week 4, Difference: −0.70
  LVID s, Change from baseline 2, Week 2, Difference: −0.22
  LVID s, Change from baseline, Week 4, Difference: −0.74
  LVPW d, Change from baseline, Week 2, Difference: 0.03
  LVPW d, Change from baseline, Week 4, Difference: 0.20
  LVPW s, Change from baseline, Week 2, Difference: 0.09
  LVPW s, Change from baseline, Week 4, Difference: 0.38
  Weight, Change from baseline, Week 2, Difference: 0.21
  Weight, Change from baseline, Week 4, Difference: 0.26
[1]; [4]
  EF, Change from baseline, Week 2, Mean: −34.17%
  EF, Change from baseline, Week 2, Median: −36.15%
  EF, Change from baseline, Week 4, Mean: −38.46%
  EF, Change from baseline, Week 4, Median: −37.79%
  FS, Change from baseline, Week 2, Mean: −25.71%
  FS, Change from baseline, Week 2, Median: −27.07%
  FS, Change from baseline, Week 4, Mean: −28.24%
  FS, Change from baseline, Week 4, Median: −28.24%
  Heart Rate, Change from baseline, Week 2, Mean: 20.04
  Heart Rate, Change from baseline, Week 2, Median: 40.66
  Heart Rate, Change from baseline, Week 4, Mean: 4.65
  Heart Rate, Change from baseline, Week 4, Median: 11.40
  IVS d, Change from baseline, Week 2, Mean: −0.03
  IVS d, Change from baseline, Week 2, Median: 0.02
  IVS d, Change from baseline, Week 4, Mean: 0.10
  IVS d, Change from baseline, Week 4, Median: 0.12
  IVS s, Change from baseline, Week 2, Mean: −0.17
  IVS s, Change from baseline, Week 2, Median: −0.24
  IVS s, Change from baseline, Week 4, Mean: −0.02
  IVS s, Change from baseline, Week 4, Median: 0.11
  LV Mass corrected, Change from baseline, Week 2, Mean: 54.81
  LV Mass corrected, Change from baseline, Week 2, Median: 63.28
  LV Mass corrected, Change from baseline, Week 4, Mean: 66.14
  LV Mass corrected, Change from baseline, Week 4, Median: 66.57
  LV Mass, Change from baseline, Week 2, Mean: 68.51
  LV Mass, Change from baseline, Week 2, Median: 79.11
  LV Mass, Change from baseline, Week 4, Mean: 82.67
  LV Mass, Change from baseline, Week 4, Median: 83.21
  LV VoI d, Change from baseline, Week 2, Mean: 39.76
  LV VoI d, Change from baseline, Week 2, Median: 38.79
  LV VoI d, Change from baseline, Week 4, Mean: 53.15
  LV VoI d, Change from baseline, Week 4, Median: 51.79
  LV VoI s, Change from baseline, Week 2, Mean: 33.74
  LV VoI s, Change from baseline, Week 2, Median: 33.90
  LV VoI s, Change from baseline, Week 4, Mean: 45.96
  LV VoI s, Change from baseline, Week 4, Median: 39.02
  LVID d, Change from baseline, Week 2, Mean: 1.11
  LVID d, Change from baseline, Week 2, Median: 1.09
  LVID d, Change from baseline, Week 4, Mean: 1.36
  LVID d, Change from baseline, Week 4, Median: 1.45
  LVID s, Change from baseline 2, Week 2, Mean: 1.62
  LVID s, Change from baseline 2, Week 2, Median: 1.69
  LVID s, Change from baseline, Week 4, Mean: 1.93
  LVID s, Change from baseline, Week 4, Median: 1.92
  LVPW d, Change from baseline, Week 2, Mean: 0.09
  LVPW d, Change from baseline, Week 2, Median: 0.13
  LVPW d, Change from baseline, Week 4, Mean: −0.00
  LVPW d, Change from baseline, Week 4, Median: 0.00
  LVPW s, Change from baseline, Week 2, Mean: −0.29
  LVPW s, Change from baseline, Week 2, Median: −0.30
  LVPW s, Change from baseline, Week 4, Mean: −0.39
  LVPW s, Change from baseline, Week 4, Median: −0.35
  Weight, Change from baseline, Week 2, Mean: −0.13
  Weight, Change from baseline, Week 2, Median: −0.30
  Weight, Change from baseline, Week 4, Mean: 0.89
  Weight, Change from baseline, Week 4, Median: 0.70
[1]; compared to vehicle treated animals, 30 mg/kg p.o. twice daily
  cardiac function after MI: improved cardiac fraction
[2]
  Cytotoxicity Code: N
  cytotoxicity to tester strains: No cytotoxicity was observed
  dose related increase of revertant colonies: No dose related increase
  precipitate in Mini-Ames assay: No precipitate was observed

From patent publication US20240174638A1, “HETEROARYL DERIVATIVES AS APELIN RECEPTOR AGONISTS” (RESEARCH TRIANGLE INSTITUTE, priority 2021, published 2024)
